Measurements from patent publication US9169199B2, “Cycloalkyl guanidine F1F0-ATPase inhibitors and therapeutic uses thereof” (Lycera Corporation, priority 2010, dated 2015).
pEC50, pIC50: −log10 of the molar value.

How the values were obtained:
Ramos cells = assay: Cytotoxicity in Ramos cells; format: cell-based; details: Homo sapiens, read-out: Ramos cell EC50
Description: (§1) Compounds in Example 4 above were tested for activity against F1F0-ATPase by measuring ATP synthesis. In addition, the compounds were assessed for cytotoxicity in Ramos cells. Inhibition of ATP synthesis by the F1F0-ATPase and cytotoxicity in Ramos cells were measured according to the procedures described in K. M. Johnson et al. Chemistry & Biology 2005, 12, 485-496.

F1F0-ATPase = target: T1, F1F0-ATPase (Bos taurus, UniProt P13621); assay: Inhibition of ATP synthesis by the F1F0-ATPase; format: biochemical
T1 construct: from tissue
Description: as §1

pIC50 (F1F0-ATPase) | SMILES | pEC50 (Ramos cells)
> 5.00 | O=C(/N=C(/Nc1cccc(Cl)c1)N[C@H]1CC[C@H](NC(=O)c2cccs2)CC1)c1ccc(F)c(F)c1 [Compound 133] | > 5.00
> 5.00 | O=C(/N=C(/Nc1cc(F)cc(Cl)c1)NC1CCC(NC(=O)c2ccccc2)CC1)c1ccccc1 (stereo not drawn) [Compound 151] | > 5.00
> 5.00 | CC(C)(C)OC(=O)NC1CCC(N/C(=N\C(=O)c2ccc(F)c(F)c2)Nc2cc(F)cc(Cl)c2)CC1 (stereo not drawn) [Compound 167] | > 5.00
> 5.00 | CCOC(=O)NC1CCC(N/C(=N\C(=O)c2cccc(OC)c2)Nc2cc(F)cc(Cl)c2)CC1 (stereo not drawn) [Compound 155] | > 5.00
> 5.00 | CCOC(=O)NC1CCC(N/C(=N\C(=O)c2ccc(F)c(C)c2)Nc2cc(F)cc(Cl)c2)CC1 (stereo not drawn) [Compound 161] | > 5.00
> 5.00 | O=C(/N=C(/Nc1cc(F)cc(Cl)c1)NC1CCC(NC(=O)c2ccccc2)CC1)c1ccc(Cl)cc1 (stereo not drawn) [Compound 164] | > 5.00
> 5.00 | O=C(/N=C(/Nc1cccc(Cl)c1)N[C@H]1CC[C@H](NC(=O)c2cnccn2)CC1)c1ccc(F)c(F)c1 [Compound 131] | > 5.00

Continued, compound first:

SMILES | pIC50 (F1F0-ATPase) | pEC50 (Ramos cells)
CCOC(=O)N[C@H]1CC[C@H](N/C(=N\C(=O)c2ccc(F)c(F)c2)NCc2ccc(F)cc2F)CC1 [Compound 58] | > 5.00 | > 5.00
CCOC(=O)N[C@H]1CC[C@H](N/C(=N\C(=O)c2ccc(F)c(F)c2)NCc2ccc(Cl)cc2F)CC1 [Compound 63] | > 5.00 | > 5.00
O=C(/N=C(/NCc1ccccc1C(F)(F)F)N[C@H]1CC[C@H](O)CC1)c1ccc(C(F)(F)F)cc1 [Compound 17] | > 5.00 | > 5.00
O=C(/N=C(/NCc1cc(F)cc(F)c1)N[C@H]1CC[C@H](O)CC1)c1ccc(F)c(F)c1 [Compound 42] | < 5.00 | < 5.00
O=C(/N=C(/NCc1ccc(C(F)(F)F)cc1)N[C@H]1CC[C@H](O)CC1)c1ccc(F)c(F)c1 [Compound 34] | < 5.00 | > 5.00
CC(C)(C)C(=O)N[C@H]1CC[C@H](N/C(=N\C(=O)c2ccc(F)c(F)c2)Nc2cc(F)cc(Cl)c2)CC1 [Compound 102] | > 5.00 | > 5.00
O=C(/N=C(/Nc1cccc(Cl)c1)N[C@H]1CC[C@H](O)CC1)c1ccc(Cl)cc1 [Compound 27] | < 5.00 | > 5.00
CCOC(=O)N[C@H]1CC[C@H](N/C(=N\C(=O)c2ccc(F)c(F)c2)NCc2ccccc2F)CC1 [Compound 53] | > 5.00 | > 5.00
CCOC(=O)N[C@H]1CC[C@H](N/C(=N\C(=O)c2ccc(F)c(F)c2)NCc2cccc(F)c2F)CC1 [Compound 57] | > 5.00 | > 5.00
O=C(/N=C(/Nc1cccc(C(F)(F)F)c1)N[C@H]1CC[C@H](Nc2ncccn2)CC1)c1ccc(C(F)(F)F)cc1 [Compound 116] | > 5.00 | > 5.00
N[C@H]1CC[C@H](N/C(=N\C(=O)c2ccc(F)c(F)c2)Nc2cccc(Cl)c2)CC1 [Compound 79] | < 5.00 | > 5.00
O=C(/N=C(/Nc1cccc(Cl)c1)N[C@H]1CC[C@H](O)CC1)c1ccc(F)c(F)c1 [Compound 5] | < 5.00 | > 5.00
O=C(/N=C(/Nc1cccc(C(F)(F)F)c1)N[C@H]1CC[C@H](Nc2ncccn2)CC1)c1ccc(F)c(F)c1 [Compound 94] | > 5.00 | > 5.00
CC1(N/C(=N/C(=O)c2ccc(C(F)(F)F)cc2)N[C@H]2CC[C@H](Nc3ncccn3)CC2)CCC1 [Compound 113] | > 5.00 | > 5.00
CCOC(=O)N[C@H]1CC[C@@H](N/C(=N\C(=O)c2ccc(F)c(F)c2)Nc2cc(F)cc(Cl)c2)CC1 [Compound 85] | > 5.00 | > 5.00
CCOC(=O)N[C@H]1CC[C@H](N/C(=N\C(=O)c2ccc(F)c(F)c2)Nc2ccccc2C2CC2)CC1 [Compound 66] | > 5.00 | > 5.00
O=C(/N=C(/NCc1ccccc1C(F)(F)F)N[C@H]1CC[C@H](Nc2ncccn2)CC1)c1ccc(F)c(F)c1 [Compound 92] | > 5.00 | > 5.00
